Assay results: US20200016159A1, “N3-CYCLICALLY SUBSTITUTED THIENOURACILS AND USE THEREOF” (Bayer Aktiengesellschaft, priority 2016, published 2020)

Molecular target: T1, human adenosine A2b receptor (Homo sapiens, UniProt P29275)
T1 sequence (P29275 1-332): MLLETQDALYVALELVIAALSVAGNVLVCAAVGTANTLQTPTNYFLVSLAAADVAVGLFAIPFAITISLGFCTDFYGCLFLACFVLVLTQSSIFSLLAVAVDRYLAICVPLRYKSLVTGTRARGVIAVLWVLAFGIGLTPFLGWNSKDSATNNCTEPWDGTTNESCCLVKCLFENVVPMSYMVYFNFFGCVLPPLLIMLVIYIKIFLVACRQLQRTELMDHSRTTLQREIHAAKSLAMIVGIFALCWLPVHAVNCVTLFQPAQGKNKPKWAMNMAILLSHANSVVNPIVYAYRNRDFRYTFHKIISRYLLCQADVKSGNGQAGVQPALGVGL
Experiment: Cellular in vitro reporter gene test for A2b receptor activity (antagonism of NECA)
Assay type: cell-based
Parameters: expressed in transfected cells; host or cells: CHO-K1 (Chinese hamster ovary) with CRE-luciferase reporter
Conditions: recombinant CHO-K1 cells, CRE-luciferase reporter, co-incubation with EC50 concentration of NECA, 3 hours
How it was run: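 CHO-K1 cells expressing recombinant human A2b receptor plus a CRE-driven firefly luciferase reporter. Compounds co-incubated with NECA at its same-day EC50 concentration; luminescence read 3 hours after NECA addition. IC50 values, sometimes means of several determinations rounded to two significant figures.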

IC50 [nM] | SMILES
15 | Cc1c(CN2CCNC2=NC#N)sc2c1c(=O)n(C1CC(F)(F)C1)c(=O)n2CCC(F)(F)F [Example 121, [1-{[3-(3,3-Difluorocyclobutyl)-5-methyl-2,4-dioxo-1-(3,3,3-trifluoropropyl)-1,2,3,4-tetrahydrothieno[2,3-d]pyrimidin-6-yl]methyl}imidazolidin-2-ylidene]cyanamide]
1.6 | Cc1c(CN2CCNC2=O)sc2c1c(=O)n(C1CC1C)c(=O)n2C (single isomer, unassigned) [Example 222, 1,5-Dimethyl-3-(2-methylcyclopropyl)-6-[(2-oxoimidazolidin-1-yl)methyl]thieno[2,3-d]pyrimidine-2,4(1H,3H)-dione]
4.1 | Cc1c(CN2CCNC2=O)sc2c1c(=O)n(C1CC1)c(=O)n2CC1CCC1 [Example 17, 1-(Cyclobutylmethyl)-3-cyclopropyl-5-methyl-6-[(2-oxoimidazolidin-1-yl)methyl]thieno[2,3-d]pyrimidine-2,4(1H,3H)-dione]
1.6 | Cc1c(CN2CCNC2=O)sc2c1c(=O)n(C1CC1C)c(=O)n2CCSC(F)(F)F (racemic) [Example 279, 5-Methyl-3-(2-methylcyclopropyl)-6-[(2-oxoimidazolidin-1-yl)methyl]-1-{2-[(trifluoromethyl)sulfanyl]ethyl}thieno[2,3-d]pyrimidine-2,4(1H,3H)-dione]
120 | Cc1c(Cn2nc[nH]c2=O)sc2c1c(=O)n(C1CC1)c(=O)n2CCCF [Example 197, 3-Cyclopropyl-1-(3-fluoropropyl)-5-methyl-6-[(5-oxo-4,5-dihydro-1H-1,2,4-triazol-1-yl)methyl]thieno[2,3-d]pyrimidine-2,4(1H,3H)-dione]
16 | Cc1c(CN2CCNC2=NC#N)sc2c1c(=O)n(C1CCCC1)c(=O)n2CCC(F)(F)F [Example 185, [1-{[3-Cyclopentyl-5-methyl-2,4-dioxo-1-(3,3,3-trifluoropropyl)-1,2,3,4-tetrahydrothieno[2,3-d]pyrimidin-6-yl]methyl}imidazolidin-2-ylidene]cyanamide]
880 | COCCn1c(=O)n(C2(C)CCC2)c(=O)c2c(C)c(Cn3nc[nH]c3=O)sc21 [Example 143, 1-(2-Methoxyethyl)-5-methyl-3-(1-methylcyclobutyl)-6-[(5-oxo-4,5-dihydro-H-1,2,4-triazol-1-yl)methyl]thieno[2,3-d]pyrimidine-2,4(1H,3H)-dione]
460 | Cc1c(Cn2nc[nH]c2=O)sc2c1c(=O)n(C1(C)CC1)c(=O)n2C[C@@H]1CCCO1 [Example 84, 5-Methyl-3-(1-methylcyclopropyl)-6-[(5-oxo-4,5-dihydro-1H-1,2,4-triazol-1-yl)methyl]-1-[(2S)-tetrahydrofuran-2-ylmethyl]thieno[2,3-d]pyrimidine-2,4(1H,3H)-dione]
7.9 | COC(=O)N=C1NCCN1Cc1sc2c(c1C)c(=O)n(C1CCCC1)c(=O)n2CCC(F)(F)F [Example 186, Methyl [1-{[3-cyclopentyl-5-methyl-2,4-dioxo-1-(3,3,3-trifluoropropyl)-1,2,3,4-tetrahydrothieno[2,3-d]pyrimidin-6-yl]methyl}imidazolidin-2-ylidene]carbamate]
17 | Cc1c(Cn2nc[nH]c2=O)sc2c1c(=O)n([C@H]1C[C@@H]1C)c(=O)n2CC(F)(F)F [Example 321, 5-Methyl-3-[(1S,2S)-2-methylcyclopropyl]-6-[(5-oxo-4,5-dihydro-1H-1,2,4-triazol-1-yl)methyl]-1-(2,2,2-trifluoroethyl)thieno[2,3-d]pyrimidine-2,4(1H, 3H)-dione]
18 | COCCn1c(=O)n(C2CCCC2)c(=O)c2c(C)c(CN3CCNC3=NC(=O)OC)sc21 [Example 191, Methyl [1-{[3-cyclopentyl-1-(2-methoxyethyl)-5-methyl-2,4-dioxo-1,2,3,4-tetrahydrothieno[2,3-d]pyrimidin-6-yl]methyl}imidazolidin-2-ylidene]carbamate]
130 | Cc1c(Cn2nc[nH]c2=O)sc2c1c(=O)n(C1(C)CC1)c(=O)n2C[C@H]1CCCO1 [Example 83, 5-Methyl-3-(1-methylcyclopropyl)-6-[(5-oxo-4,5-dihydro-1H-1,2,4-triazol-1-yl)methyl]-1-[(2R)-tetrahydrofuran-2-ylmethyl]thieno[2,3-d]pyrimidine-2,4(1H, 3H)-dione]
28 | Cc1c(CN2CCNC2=O)sc2c1c(=O)n(C1CC1(C)C)c(=O)n2CCCF (single isomer, unassigned) [Example 99, 3-(2,2-Dimethylcyclopropyl)-1-(3-fluoropropyl)-5-methyl-6-[(2-oxoimidazolidin-1-yl)methyl]thieno[2,3-d]pyrimidine-2,4(1H,3H)-dione]
19 | Cc1c(CN2CCNC2=O)sc2c1c(=O)n(C1CC1C)c(=O)n2CC1CCOC1 (single isomer, unassigned) [Example 291, 5-Methyl-3-(2-methylcyclopropyl)-6-[(2-oxoimidazolidin-1-yl)methyl]-1-(tetrahydrofuran-3-ylmethyl)thieno[2,3-d]pyrimidine-2,4(1H,3H)-dione]
53 | Cc1c(Cn2nc[nH]c2=O)sc2c1c(=O)n(C1CC1)c(=O)n2CCCC(F)(F)F [Example 201, 3-Cyclopropyl-5-methyl-6-[(5-oxo-4,5-dihydro-1H-1,2,4-triazol-1-yl)methyl]-1-(4,4,4-trifluorobutyl)thieno[2,3-d]pyrimidine-2,4(1H,3H)-dione]
55 | Cc1c(Cn2[nH]ccc2=O)sc2c1c(=O)n(C1CC1)c(=O)n2CCC(F)(F)F [Example 200, 3-Cyclopropyl-5-methyl-6-[(5-oxo-2,5-dihydro-H-pyrazol-1-yl)methyl]-1-(3,3,3-trifluoropropyl)thieno[2,3-d]pyrimidine-2,4(1H,3H)-dione]
6.2 | Cc1c(Cn2nc[nH]c2=O)sc2c1c(=O)n(C1CC1)c(=O)n2CC1CC(F)(F)C1 [Example 206, 3-Cyclopropyl-1-[(3,3-difluorocyclobutyl)methyl]-5-methyl-6-[(5-oxo-4,5-dihydro-1H-1,2,4-triazol-1-yl)methyl]thieno[2,3-d]pyrimidine-2,4(1H,3H)-dione]
220 | COCCn1c(=O)n([C@H]2C[C@H](OC)C2)c(=O)c2c(C)c(Cn3nc[nH]c3=O)sc21 [Example 153, 3-(trans-3-Methoxycyclobutyl)-1-(2-methoxyethyl)-5-methyl-6-[(5-oxo-4,5-dihydro-1H-1,2,4-triazol-1-yl)methyl]thieno[2,3-d]pyrimidine-2,4(1H,3H)-dione]
17 | Cc1c(CN2CCNC(=O)C2=O)sc2c1c(=O)n(C1CC3(CCC3)C1)c(=O)n2CCC(F)(F)F [Example 177, 6-[(2,3-Dioxopiperazin-1-yl)methyl]-5-methyl-3-(spiro[3.3]hept-2-yl)-1-(3,3,3-trifluoropropyl)thieno[2,3-d]pyrimidine-2,4(1H,3H)-dione]
14 | COCCn1c(=O)n(C2CC(F)(F)C2)c(=O)c2c(C)c(CN3CCNC3=NC#N)sc21 [Example 126, [1-{[3-(3,3-Difluorocyclobutyl)-1-(2-methoxyethyl)-5-methyl-2,4-dioxo-1,2,3,4-tetrahydrothieno[2,3-d]pyrimidin-6-yl]methyl}imidazolidin-2-ylidene]cyanamide]
63 | CO[C@H]1C[C@@H](n2c(=O)c3c(C)c(CN4CCNC(=O)C4=O)sc3n(CCC(F)(F)F)c2=O)C1 [Example 157, 6-[(2,3-Dioxopiperazin-1-yl)methyl]-3-(cis-3-methoxycyclobutyl)-5-methyl-1-(3,3,3-trifluoropropyl)thieno[2,3-d]pyrimidine-2,4(1H,3H)-dione]
4.4 | Cc1c(CN2CCNC2=NC#N)sc2c1c(=O)n(C1(C)CC1)c(=O)n2CCC(F)(F)F [Example 57, [1-{[5-Methyl-3-(1-methylcyclopropyl)-2,4-dioxo-1-(3,3,3-trifluoropropyl)-1,2,3,4-tetrahydrothieno[2,3-d]pyrimidin-6-yl]methyl}imidazolidin-2-ylidene]cyanamide]
4.7 | Cc1c(CN2CCNC2=O)sc2c1c(=O)n(C1CC1C)c(=O)n2CC(F)(F)F (single isomer, unassigned) [Example 239, 5-Methyl-3-(2-methylcyclopropyl)-6-[(2-oxoimidazolidin-1-yl)methyl]-1-(2,2,2-trifluoroethyl)thieno[2,3-d]pyrimidine-2,4(1H,3H)-dione]
1.3 | CCCCn1c(=O)n([C@H]2C[C@@H]2C)c(=O)c2c(C)c(CN3CCNC3=O)sc21 [Example 230, 1-Butyl-5-methyl-3-[(1S,2S)-2-methylcyclopropyl]-6-[(2-oxoimidazolidin-1-yl)methyl]thieno[2,3-d]pyrimidine-2,4(1H,3H)-dione]
130 | Cc1c(Cn2nc[nH]c2=O)sc2c1c(=O)n(C1CC1)c(=O)n2CC1CC1(F)F (racemic) [Example 20, 3-Cyclopropyl-1-[(2,2-difluorocyclopropyl)methyl]-5-methyl-6-[(5-oxo-4,5-dihydro-1H-1,2,4-triazol-1-yl)methyl]thieno[2,3-d]pyrimidine-2,4(1H,3H)-dione (racemate)]
110 | COCCn1c(=O)n(C2CC2OC)c(=O)c2c(C)c(Cn3nc[nH]c3=O)sc21 (racemic) [Example 309, 3-(2-Methoxycyclopropyl)-1-(2-methoxyethyl)-5-methyl-6-[(5-oxo-4,5-dihydro-1H-1,2,4-triazol-1-yl)methyl]thieno[2,3-d]pyrimidine-2,4(1H,3H)-dione]
